Experimental data from patent US20200148682A1, “AKT ISOZYME-SPECIFIC COVALENT INHIBITORS DERIVED FROM REDOX-SIGNALING LIPIDS” (Cornell University, priority 2017, published 2020).
Entries after “also recorded” stand apart in the source; their conditions may differ.

Tests used:
Format in all cases: cell-based
MDA-MB-468 cells = assay: Cell cycle analysis using flow cytometry
Protocol: MDA-MB-468 cells in a 6-well plate at 10% confluence were treated with HNE alkyne or the indicated drug at PI60 or PI80 concentration for 72 hours at 37° C. Negative control contained the equivalent volume of DMSO. Cells were grown and analyzed in separate batches of 1-2 replicates per condition that were run 2-3 times each. Each time the data points were normalized to the control set for each batch. At the indicated time post compound treatment, the culture medium was aspirated and the adherent cells were detached from the plate using trypsin, quenched with complete media, centrifuged (700 g), washed once with PBS, centrifuged (700 g), resuspended in PBS, then fixed with 70% ethanol for 24 hours. The cell suspensions were spun down at 1,000 g and washed with 500 μl of PBS twice. Each cell pellet was treated with 500 μL staining solution containing 50 μl of Ribonuclease A (≥70 Kunitz units/mg proteins, R6513, Sigma-Aldrich) and 50 μl of a propidium iodide (1 mg/ml, Sigma-Aldrich) solution in PBS with 1% BSA. The resulting solution was incubated with agitation at room temperature for 30 min in the dark.
The stained cells were assayed on a BD LSR II flow cytometer. FlowJo® was used to deconvolute the signals. Cells were grouped first by forward and side scatter (area), then that group was regrouped using forward (width) versus forward (area) scatter to give single cells. Cells were than analyzed using cellular DNA content to quantitate the percentage of cells in the respective phases (G1, S, G2/M and sub-G0) of the cell cycle.

[1] = test system: Akt1, Akt2, Akt3 isoforms; assay: Akt isoform selectivity of covalent inhibition (in-gel fluorescence, transfected HEK293T cells)
From the text: Overexpressed Akt proteins were labeled with Cy5-small-molecule-fluorophore-conjugated azide (Cy5-azide) using standard click chemistry. FIG. 16A top gel is an image showing Cy5 channel (used to evaluate the extent of covalent binding on each Akt protein). The lysate from non-transfected HEK 293T cells was also used for comparison. M, molecular weight ladder. […] FIG. 16B top gel is an image showing Cy5 channel. M is a molecular weight ladder. FIG. 16B bottom is an image showing western blots probing Halo and actin, respectively. […] Error bars designate s.d. […] Normalized fluorescent signal (NFS) was calculated from the following equation: NFS=[(Cy5(X μM drug)−Cy5(No transfection))/Halo(X μM drug)]÷[(Cy5(no drug)−Cy5(No transfection))/Halo(no drug)]. The relative fluorescent signal (RFS) is calculated from the following equation: RFS=(Cy5(X μM drug)/Halo(X μM drug)) (Cy5(no drug)/Halo(no drug))
Cell transfection with the designated plasmid encoding a given HaloTag-Akt fusion gene was carried out following the general procedure described in Example 12. After 20-24 hours, the transfection media were aspirated and replaced with fresh 2 mL rinse MEM medium supplemented with 3% FBS containing the indicated concentration of inhibitor or the equivalent final volume of DMSO and the plates were incubated for the indicated period of time. […]

Halo-Akt3 = molecular target: T1, Halo-Akt3 (Homo sapiens, UniProt Q9Y243); assay: In-gel fluorescence assay (Cy5-azide click) of covalent labeling in transfected HEK293T cells; conditions: 5 μM, 48 hours
T1 construct: expressed in transfected cells; host or cells: HEK293T
T1 sequence (Q9Y243 whole entry): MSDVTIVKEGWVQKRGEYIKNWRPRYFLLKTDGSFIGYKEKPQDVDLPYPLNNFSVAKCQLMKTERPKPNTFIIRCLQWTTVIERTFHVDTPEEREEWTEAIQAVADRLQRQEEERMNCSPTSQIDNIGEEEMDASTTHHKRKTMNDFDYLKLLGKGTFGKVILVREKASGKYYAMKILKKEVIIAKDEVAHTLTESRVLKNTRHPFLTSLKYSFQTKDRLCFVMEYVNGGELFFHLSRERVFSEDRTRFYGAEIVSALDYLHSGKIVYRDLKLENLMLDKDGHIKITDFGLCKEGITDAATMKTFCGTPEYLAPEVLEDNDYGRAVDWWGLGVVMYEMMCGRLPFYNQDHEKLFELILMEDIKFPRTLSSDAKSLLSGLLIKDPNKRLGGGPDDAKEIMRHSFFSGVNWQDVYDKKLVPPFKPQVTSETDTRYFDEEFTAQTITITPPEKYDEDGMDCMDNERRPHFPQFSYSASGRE
Protocol: HEK293T cells were transfected with Halo-Akt3 for 20 hours, then treated with the stated compound (5 μM, 48 hours). After this time, cells were lysed and the labeling was assayed by click chemistry. […] FIGS. 19A, 19C top gels are images showing in gel fluorescence, Cy5 channel. M is a molecular weight ladder. FIG. 19A, 19C lower panels are images of western blots (probing for Halo and actin, respectively) transferred from the same gel as the top image. […] FIGS. 19E-19F are graphs showing quantitation of in-gel Cy5 signal intensity, divided by the western blot signal for Halo.
Cell transfection with the designated plasmid encoding a given HaloTag-Akt fusion gene was carried out following the general procedure described in Example 12. After 20-24 hours, the transfection media were aspirated and replaced with fresh 2 mL rinse MEM medium supplemented with 3% FBS containing the indicated concentration of inhibitor or the equivalent final volume of DMSO and the plates were incubated for the indicated period of time. Cells were then harvested and lysed following the general procedure described in Examples 11 and 13. A portion of the lysate was made up to 25 μL final volume containing, in final concentrations, 5% t-BuOH, [2 mM TCEP, 1% SDS, 1 mM CuSO4, 0.1 mM Cu(TBTA), 10 μM Cy5 azide made up as a 10× stock in water] and 1.0 mg/mL lysate protein. The samples were incubated at 37° C. for 30 min and subsequently quenched with 8 μL of 4×Laemmeli dye containing 6% f ME. After an additional 5-min incubation at 37° C., samples were resolved on a 10% SDS-PAGE gel following the general procedure described in Example 14. After electrophoresis, the gel was rinsed three times with ddH2O and imaged on a Bio-Rad Chemi-doc-MP Imager. Where applicable, the gel was transferred to a PVDF membrane for western blot analysis following the general procedure described in Example 15.

BT-549 = assay: Cell viability assay (AlamarBlue); conditions: BT-549, 72 hours
Protocol: (§1) FIGS. 22A and 22D are graphs showing results of cytotoxicity assays for MDA-MB-468 (FIG. 22A) and BT-549 (FIG. 22D). […] Stated cell lines were plated in 96-well plates (3000 cells per well) in the presence of the stated concentration of inhibitor. After 72 hours, the number of viable cells was analyzed by AlamarBlue®. Proliferation inhibition 50% (PI50) values were calculated by fitting data to “PI50 equation” (EQN 4) (FIG. 22C). MDA cells were transfected with the stated siRNA using lipofectamine 3000 for 12 hours. […] After 72 hours, the number of viable cells was calculated using AlamarBlue®. FIG. 22F is a schematic showing AlamarBlue® viability assay. […] MDA-MB-468 cells were treated with the stated drugs for 72 hours at the PI60 and PI80. After this time, cells were harvested, fixed/permeabilized with ethanol and DNA content was stained using propidium iodide (visualized in the 488-3 channel). RNA was removed simultaneously using RNAse. After 30 min at room temperature, cells were analyzed by flow cytometry.
(§2) Indicated cells were plated in a 96-well plate containing the DMEM complete medium (see Example 11 for complete medium formulation, 100 μL per well) with a density of 3,000-5,000 cells per well for 12 hours followed by the addition of varying concentrations of inhibitors in rinse medium (100 μL). The cells were allowed to grow for 72 hours and 100 μL of the culture medium was removed from each well. This was followed by the addition of 10 μL AlamarBlue® reagent to each well. The fluorescence emission signals at 590 nm were read by Cytation 3 cell imaging multi-mode reader (BioTeK) using an excitation wavelength of 560 nm. Curve fitting and data analysis were performed using Prism software.

MDA-MB-468 = assay: Cell viability assay (AlamarBlue); conditions: MDA-MB-468, 72 hours
Protocol: as §1, §2

CC(C)NC[C@@H](C(=O)N1CCN(c2ncnc3c2[C@H](C)C[C@H]3O)CC1)c1ccc(Cl)cc1 [GDC-0068]
G1/G0 (percentage of cells in phase) (MDA-MB-468 cells; drug at PI60, 72 hours): 52.6
G2/M (percentage of cells in phase) (MDA-MB-468 cells; drug at PI60, 72 hours): 28.3
S (percentage of cells in phase) (MDA-MB-468 cells; drug at PI60, 72 hours): 12.1
subG0 (percentage of cells in phase) (MDA-MB-468 cells; drug at PI60, 72 hours): 1.64

CCn1c(-c2nonc2N)nc2c(C#CC(C)(C)O)ncc(OC[C@H]3CCCNC3)c21 [GSK-69063]
G1/G0 (percentage of cells in phase) (MDA-MB-468 cells; drug at PI80, 72 hours): 47.7
G2/M (percentage of cells in phase) (MDA-MB-468 cells; drug at PI80, 72 hours): 30.0
S (percentage of cells in phase) (MDA-MB-468 cells; drug at PI80, 72 hours): 14.3
subG0 (percentage of cells in phase) (MDA-MB-468 cells; drug at PI80, 72 hours): 0.92

C#CCCCC(O)C=CC=O (stereo not shown) [HNE alkyne]
G1/G0 (percentage of cells in phase) (MDA-MB-468 cells; drug at PI60, 72 hours): 40.0
G2/M (percentage of cells in phase) (MDA-MB-468 cells; drug at PI60, 72 hours): 30.8
S (percentage of cells in phase) (MDA-MB-468 cells; drug at PI60, 72 hours): 26.3
subG0 (percentage of cells in phase) (MDA-MB-468 cells; drug at PI60, 72 hours): 3.7
G1/G0 (percentage of cells in phase) (MDA-MB-468 cells; drug at PI80, 72 hours): 28.5
G2/M (percentage of cells in phase) (MDA-MB-468 cells; drug at PI80, 72 hours): 22
S (percentage of cells in phase) (MDA-MB-468 cells; drug at PI80, 72 hours): 31.3
subG0 (percentage of cells in phase) (MDA-MB-468 cells; drug at PI80, 72 hours): 18.2

CCCCCC(O)/C=C/C=O (stereo not shown) [HNE, hydroxynonenal]
effect on cell cycle (MDA-MB-468 cells; 72 hours): S-phase arrest; also recorded: loss of G1

C#CCCCCC(O)C(=C)C(=O)NC1(c2ccc(-c3nc4ccn5c(=O)[nH]nc5c4cc3-c3ccccc3)cc2)CCC1.Cl (stereo not shown) [MK-G, 8-(4-(1-(3-Hydroxy-2-methylenenon-8-ynamido)cyclobutyl)phenyl)-3-oxo-9-phenyl-2,3-dihydro-[1,2,4]triazolo[3,4-f][1,6]naphthyridin-7-ium Chloride]
Akt isozyme selectivity of inhibition [1]: no isozyme-selective inhibition

C#CCCCC(O)CCC(=O)NC1(c2ccc(-c3nc4ccn5c(=O)[nH]nc5c4cc3-c3ccccc3)cc2)CCC1.Cl (stereo not shown) [MK-HNA, 8-(4-(1-(4-Hydroxynon-8-ynamido)cyclobutyl)phenyl)-3-oxo-9-phenyl-2,3-dihydro-[1,2,4]triazolo[3,4-f][1,6]naphthyridin-7-ium Chloride]
covalent labeling of Halo-Akt3 (Halo-Akt3): no covalent labeling was observed

C#CCCCC/C=C/C(=O)NC1(c2ccc(-c3nc4ccn5c(=O)[nH]nc5c4cc3-c3ccccc3)cc2)CCC1 [MK-dHNE, (E)-8-(4-(1-(Non-2-en-8-ynamido)cyclobutyl)phenyl)-3-oxo-9-phenyl-2,3-dihydro-[1,2,4]triazolo[3,4-f][1,6]naphthyridin-7-ium Chloride]
toxicity / potency relative to MK-2206 (BT-549): less effective than MK-2206
toxicity / potency relative to MK-2206 (MDA-MB-468): less effective than MK-2206
covalent labeling of Halo-Akt3 (Halo-Akt3): able to elicit covalent labeling
